Patent US8415115B2, “Reaction medium for methicillin-resistant Staphylococcus aureus (MRSA) bacteria” (Biomerieux, priority 2008, dated 2013)

Assays:
[1] = test system: Methicillin-resistant Staphylococcus aureus (MRSA); assay: Detection of MRSA strains (colored colonies) on chromID MRSA based media with alpha-glucosidase substrates and antibiotics; assay type: cell-based; settings: Example B, alpha-glucosidase substrates
Method: The media tested in the experiments hereinafter were media comprising the chromID MRSA medium (bioMérieux ref. 43 451) as basic medium, and comprising the following elements: • Medium T: chromID MRSA control medium (ref. 43 451), comprising in particular an X-N-methyl-alpha-glucoside substrate, at a concentration of 0.1 g/l, and Cefoxitin at 4 mg/1. • Medium S: medium T, also comprising an X-alpha-glucoside substrate, at a concentration of 25, 37, 45 or 50 mg/l. • Medium A: medium S (X-alpha-glucoside concentration: 45 mg/l), the Cefoxitin being substituted with Ceftriaxone, at a concentration of 1, 2, 4, 8, 16, 32 mg/l. • Medium B: medium S (X-alpha-glucoside concentration: 45 mg/l), the Cefoxitin being substituted with Cefotaxime at a concentration of 1, 2, 4, 8, 16, 32 mg/l. • Medium C: medium S (X-alpha-glucoside concentration: 45 mg/l), the Cefoxitin being substituted with Ertapenem at a concentration of 0.1, 0.25, 0.5, 0.75, 1 mg/l. • Medium D: medium S (X-alpha-glucoside concentration: 45 mg/l), the Cefoxitin being substituted with Cefoperazone at a concentration of 0.5, 1, 1.5, 2 mg/l. • Medium E: medium S (X-alpha-glucoside concentration: 45 mg/l), the Cefoxitin being substituted with Cefpodoxime at a concentration of 0.5, 1, 1.5, 2 mg/l. • Medium F: medium S (X-alpha-glucoside concentration: 45 mg/l), the Cefoxitin being substituted with a Cefoxitin/Cefotaxime concentration at the concentrations below:
• Medium G: medium S (X-alpha-glucoside concentration: 45 mg/l), the Cefoxitin being substituted with a Cefoxitin/Ceftriaxone combination at the concentrations below:
• Medium H: medium S (X-alpha-glucoside concentration: 45 mg/l), the Cefoxitin being substituted with a Cefoxitin/Ertapenem combination at the concentrations below:
• Medium I: medium S (X-alpha-glucoside concentration: 45 mg/l), the Cefoxitin being substituted with a Cefoxitin/Cefpodoxime combination at the concentrations below:
• Medium J: medium S (X-alpha-glucoside concentration: 45 mg/1), the Cefoxitin being substituted with a Cefoxitin/Cefoperazone combination at the concentrations below:
• Medium K: medium S (X-alpha-glucoside concentration: 45 mg/l), the Cefoxitin being substituted with a Cefoxitin/Cefotaxime combination, at the concentrations below, also comprising a mixture of inhibitors that favour the growth of Staphylococcus aureus.
• Medium L: medium S (X-alpha-glucoside concentration: 45 mg/l), the Cefoxitin being substituted with Cefdinir at a concentration of 0.25, 0.5, 1, 2, 4, 8 mg/l. • Medium M: medium S (X-alpha-glucoside concentration: 45 mg/l), the Cefoxitin being substituted with a Cefoxitin/Cefdinir combination at the concentrations below: […]
The strains detected correspond to the strains forming colored colonies on the medium.

MSSAs = assay: Sub-inhibitory concentration: below the antibiotic concentration required for inhibition of MSSAs in a culture medium; assay type: cell-based, Staphylococcus aureus; settings: culture medium such as chromID S. aureus medium
Method: The sub-inhibitory concentration is intended to mean a concentration below the concentration of antibiotic required for inhibition of MSSAs, in a culture medium suitable for searching for S. aureus using a biological sample, such as the chromID™ S. aureus medium (bioMerieux). This concentration is below approximately 3 mg/l in the case of Cefoxitin, approximately 2 mg/l in the case of Cefotaxime, approximately 1 mg/l in the case of Ertapenem, approximately 2 mg/l in the case of Cefoperazone, approximately 2 mg/l in the case of Cefpodoxime, and approximately 1 mg/l in the case of Cefdinir.

Row | SMILES | Sensitivity and specificity, MRSAs distinguished from MSSAs (in words) [1] | Sub-inhibitory concentration (MSSAs)
1 | CCN1CCN(C(=O)N[C@@H](C(=O)N[C@@H]2C(=O)N3C(C(=O)O)=C(CSc4nnnn4C)CS[C@H]23)c2ccc(O)cc2)C(=O)C1=O [Cefoperazone] | did not make it possible to obtain, on their own, a sensitivity and a specificity enabling MRSAs to be distinguished from MSSAs | 
2 | CO/N=C(\C(=O)N[C@@H]1C(=O)N2C(C(=O)O)=C(COC(C)=O)CS[C@H]12)c1csc(N)n1 [Cefotaxime] | did not make it possible to obtain, on their own, a sensitivity and a specificity enabling MRSAs to be distinguished from MSSAs | 
3 | CO[C@@]1(NC(=O)Cc2cccs2)C(=O)N2C(C(=O)O)=C(COC(N)=O)CS[C@@H]21 [Cefoxitin] |  | < 3 mg/L
4 | CO/N=C(\C(=O)N[C@@H]1C(=O)N2C(C(=O)O)=C(CSc3nc(=O)c(=O)[nH]n3C)CS[C@H]12)c1csc(N)n1 [Ceftriaxone] | did not make it possible to obtain, on their own, a sensitivity and a specificity enabling MRSAs to be distinguished from MSSAs | 
5 | C[C@@H](O)[C@H]1C(=O)N2C(C(=O)O)=C(S[C@@H]3CN[C@H](C(=O)Nc4cccc(C(=O)O)c4)C3)[C@H](C)[C@H]12 [Ertapenem] | did not make it possible to obtain, on their own, a sensitivity and a specificity enabling MRSAs to be distinguished from MSSAs | 
